Experimental data taken from US20240209022A1, “NOVEL PEPTIDE HAVING ANTI-INFLAMMATORY AND TISSUE REGENERATIVE ACTIONS” (KOREA RESEARCH INSTITUTE OF BIOSCIENCE AND BIOTECHNOLOGY, priority 2020, published 2024).

Experiments:
naturally aged mice = assay: NORT and Y-maze alteration test in naturally aged mice; assay type: in vivo, C57BL6/J mice; details: oral; for spontaneous alteration, Y-maze alteration test: 0.2 μg daily 5 days a week for 8 weeks, vs PBS buffer
Method: An experiment was conducted to verify the efficacy of the peptides of the present invention in an animal model of cognitive/memory disorder due to natural aging.
Amuc_1409 was orally administered to 16.5-month-old male mice by 4.5 μg daily 5 days a week for 8 weeks, and PEP002, PEP003, PEP004, or PEP005 was dissolved in PBS buffer at a concentration of 2.4 μM and then orally administered to 16-month-old male mice by 150 μL per animal at the same time once a day for 3 weeks. To the control group (vehicle), PBS was orally administered in the same volume.
In the case of the groups administered with the novel tetrapeptides and tripeptides (PEP006 to PEP013), each peptide was orally administered to 19-month-old female C57BL6/J mice by 0.2 μg daily 5 days a week for 8 weeks. At this time, the peptide was dissolved in PBS buffer and orally administered to the mice at 0.2 μg/150 μL per animal at the same time once a day. To the vehicle group, PBS was orally administered in the same volume. At this time, 4-month-old female C57BL6/J mice were used as a young control group.
A novel object recognition test (NORT) was performed to test the effect of improving cognitive function in naturally aged mice. When the object seen 24 hours ago and a novel object were provided, the exploration time and the number of explorations for the novel object were measured to test cognition and memory. In addition, a Y-maze alteration test was performed to confirm the effect of enhancing spatial perception and memory. In the Y-maze alteration test, spontaneous alteration (%) was evaluated by measuring the order of entering each Y-shaped maze (A, B and C). […] The spontaneous alteration was calculated and expressed as the total number of alterations/(total number of entries−2)×100.

[1] = test system: C57BL/6J naturally aged mice; assay: Skin aging in naturally aged mice (skin H&E); assay type: in vivo, C57BL/6J mice; details: oral, vs PBS buffer group
Method: As an animal model of aging, 19- to 22-month old C57BL/6J naturally aged mice were used. Solid feed and water were sufficiently supplied until the day of the experiment, the environment was maintained at a temperature of 22° C. 2° C., humidity of 55%±15%, and a 12-hour light/dark cycle, and the mice were used for the experiment. Amuc_1409 and PEP001 were dissolved in PBS buffer at 10 μg/150 μL and 0.7 μg/150 μL, respectively, and then orally administered to the naturally aged mice by 150 μL per animal at the same time once a day for […], and novel tetrapeptides PEP006, PEP007, PEP008, PEP009, and PEP010 and novel tripeptides PEP011, PEP012, and PEP013 were each dissolved in PBS buffer at a concentration of 0.2 μg/150 μL and then orally administered to the naturally aged mice by 150 μL per animal at the same time once a day for 10 weeks. To the control group, PBS buffer was orally administered in the same manner.
On the day to be the 10th week of administration, a part of the tissue was excised from the back of the mouse and fixed in 10% formalin for 24 hours or more for histopathological analysis.
The fixed skin tissue was embedded in paraffin to prepare a 5 μm-thick section, and the skin section was H&E-stained with hematoxylin and eosin to analyze the skin epidermis thickness and the number of hair follicles.

[2] = test system: DSS-induced enteritis model; assay: DSS enteritis (inflammatory bowel disease) model; assay type: in vivo, C57BL/6J mice; details: vs PBS buffer group; for Il-6 gene expression in distal colon: RT-qPCR; for length of the colon: oral 3 days in recovery period; for body weight (weight gain rate): recovery period after DSS, oral 6 days
Method: In order to confirm the efficacy of the peptides of the present invention for preventing and treating inflammatory bowel disease, an experiment was conducted using an animal model of enteritis. As the enteritis model, enteritis was induced by dissolving DSS in drinking water at a concentration of 1.2% and then administered to 10-week-old specific pathogen free (SPF) male C57BL/6J mice through the drinking water for 6 days, and then the drinking water was replaced with water to give a recovery period. During the recovery period, PEP002, PEP003, PEP004, or PEP005 was dissolved in PBS buffer at a concentration of 4.3 μM and then orally administered to the mice by 150 μL per animal once a day at the same time, and the same volume of PBS buffer was orally administered to the control group. During the recovery period, oral administration was performed 6 times for 6 days to examine the rate of increase in body weight due to recovery from enteritis. In addition, in order to examine the length of the colon, the degree of inflammation in the colon, and the degree of recovery of the colon tissue, the test was terminated after oral administration 3 times for 3 days. At the end of the experiment, the length of the colon was measured, a part of the distal colon was rapidly cooled in liquid nitrogen, and RNA was extracted using Trizol. Reverse transcriptase was added to the obtained RNA and reacted to synthesize cDNA, and SYBR Green and primers were added to perform quantitative real-time PCR (RT-qPCR), and then the level of Il-6 gene expression was quantified. In addition, a part of the distal colon was fixed in 10% NBF at room temperature for 24 hours or more, and then embedded in paraffin to prepare a 5 μm-thick section, and the section was stained with hematoxylin and eosin (H&E). The H&E-stained tissue sections were observed under an optical microscope and the histopathological degree of enteritis was evaluated using a histologic colitis scoring system (Table 4). [table]

[3] = test system: LPS-induced cognitive and memory disorder mice; assay: Novel object recognition test in LPS-induced cognitive/memory disorder model; assay type: in vivo, C57BL/6J mice; details: oral; LPS 250 μg/kg/day for 7 days; vs control group
Method: LPS was intraperitoneally injected to C57BL/6J male mice at 250 μg/kg/day daily for 7 days to induce cognitive and memory disorders. Amuc_1409, a protein derived from Akkermansia muciniphila, was orally administered to the mice by 5 μg daily from one week before LPS administration until the cognitive and memory test was performed. PEP002, PEP003, PEP004, or PEP005 was dissolved in PBS buffer at a concentration of 2.4 μM and then orally administered to the mice by 150 μL per animal daily at the same time once a day from 3 days before LPS administration until the cognitive and memory test was performed. To the control group (vehicle), PBS was orally administered in the same volume.
In order to test the effect of improving cognitive function in mice with cognitive and memory disorder administered with Amuc_1409 or PEP002, PEP003, PEP004, or PEP005, a novel object recognition test was performed. When the object seen 24 hours ago and a novel object were provided, the exploration time and the number of explorations for the novel object were measured to test cognition and memory.

Q: Which results are given for IGAY (PEP008)?
A: spontaneous alteration, Y-maze alteration test (naturally aged mice): significantly improved; number of hair follicles [1]: tended to increase; thickness of the skin epidermis [1]: significantly increased

Q: With AVSSI (PEP002) as the molecule, how does the “Il-6 gene expression in distal colon” value [2] read?
A: significantly decreased

Q: And the “length of the colon” value [2]?
A: significantly increased

Q: And the “body weight (weight gain rate)” value [2]?
A: tended to increase

Q: What about the “degree of crypt damage (H&E)” value [2] of the same molecule?
A: significantly decrease

Q: What about the “degree or extent of intestinal inflammation (H&E)” value (“degree or extent” below) [2] of the same molecule?
A: decreased

Q: And the “memory and cognitive function, novel object recognition test” value (from here on “memory and cognitive function”) [3]?
A: improved

Q: Which “thickness of the skin epidermis” value [1] does the source give for AQS [PEP011] here?
A: significantly increased

Q: For AGS [PEP012], which “number of hair follicles” value [1] is on record?
A: tended to increase

Q: What about the “thickness of the skin epidermis” value [1] of the same molecule?
A: significantly increased

Q: Which results are given for RGAY (PEP007)?
A: number of hair follicles [1]: tended to increase; thickness of the skin epidermis [1]: significantly increased

Q: With AVSSIKGAY (PEP001) as the molecule, how does the “thickness of the skin epidermis” value [1] read?
A: significantly increased

Q: Which results are given for KGAY (PEP003)?
A: Il-6 gene expression in distal colon [2]: significantly decreased; length of the colon [2]: tended to increase; body weight (weight gain rate) [2]: tended to increase; degree of crypt damage (H&E) [2]: significantly decrease; degree or extent of intestinal inflammation (H&E) [2]: decreased; memory and cognitive function, novel object recognition test [3]: improved

Q: SGAY (PEP009) was tested. Which “number of hair follicles” value [1] did it give?
A: tended to increase

Q: And the “thickness of the skin epidermis” value [1]?
A: significantly increased

Q: AVS (AVSSIKGAY) [PEP004] was tested. Which “Il-6 gene expression in distal colon” value [2] did it give?
A: significantly decreased

Q: And the “length of the colon” value [2]?
A: significantly increased

Q: What about the “body weight (weight gain rate)” value [2] of the same molecule?
A: significantly increased

Q: What about the “degree of crypt damage (H&E)” value [2] of the same molecule?
A: significantly decrease

Q: What about the “degree or extent” value [2] of the same molecule?
A: decreased

Q: What about the “memory and cognitive function” value [3] of the same molecule?
A: improved

Q: Which “number of hair follicles” value [1] does the source give for AGAY (PEP006) here?
A: tended to increase

Q: And the “thickness of the skin epidermis” value [1]?
A: significantly increased

Q: How did the “Il-6 gene expression in distal colon” value [2] turn out when GAY [PEP005] was run?
A: significantly decreased

Q: What about the “length of the colon” value [2] of the same molecule?
A: significantly increased

Q: What about the “body weight (weight gain rate)” value [2] of the same molecule?
A: significantly increased

Q: What about the “degree of crypt damage (H&E)” value [2] of the same molecule?
A: significantly decrease

Q: What about the “degree or extent” value [2] of the same molecule?
A: decreased

Q: What about the “memory and cognitive function” value [3] of the same molecule?
A: improved

Q: For VGAY (PEP010), which “spontaneous alteration, Y-maze alteration test” value (naturally aged mice) is on record?
A: significantly improved

Q: What about the “number of hair follicles” value [1] of the same molecule?
A: tended to increase

Q: And the “thickness of the skin epidermis” value [1]?
A: significantly increased

Q: AIS [PEP013] was tested. Which “number of hair follicles” value [1] did it give?
A: tended to increase

Q: What about the “thickness of the skin epidermis” value [1] of the same molecule?
A: increased close to a significant level

B1: Amuc_1409: SEQ ID NO: 15, functional fragment obtained by eliminating the leader sequence from SEQ ID NO: 14; protein derived from Akkermansia muciniphila (protein)
chain: IPESSVPAAAVSSIKGAYPNAGPIEWDSEMHGMERIYEAEFRINGFQFDVKIAPDGKIVRIKEEIAASSLPEAVRASVLKRYPGCRIKEAEKITEGELVRYKVEVADSRDDYDVLIAPDGNILHVDR
modifications: Amuc_1409_fragment
notes: protein derived from Akkermansia muciniphila
Q: For B1, which “memory and cognitive function” value [3] is on record?
A: improved

Q: And the “cognition and memory, novel object recognition test” value (naturally aged mice; naturally aged mice, vs control group)?
A: significantly improved or tended to be improved

Q: What about the “thickness of the skin epidermis” value [1] of the same molecule?
A: significantly increased
